Experimental data taken from ChEMBL document CHEMBL3774345, “Synthesis of new diarylamides with pyrimidinyl pyridine scaffold and evaluation of their anti-proliferative effect on cancer cell lines” (Bioorg Med Chem Lett, 2016).

Experiments:
NCI-H522 = assay: Cytotoxicity against human NCI-H522 cells assessed as cell growth at 10^-5 M after 24 hrs by SRB assay; format: functional; conditions: NCI-H522, 24 h, read-out: Activity
[1] = Cytotoxicity against human IGROV1 cells assessed as cell growth at 10^-5 M after 24 hrs by SRB assay; format: functional; conditions: IGROV-1, 24 h, read-out: Activity
[2] = Cytotoxicity against human Caki1 cells after 24 hrs by SRB assay; format: functional; conditions: CAKI-1, 24 h
[3] = Cytotoxicity against human NCI-ADR-RES cells after 24 hrs by SRB assay; format: functional
[4] = Cytotoxicity against human OVCAR5 cells after 24 hrs by SRB assay; format: functional; conditions: OVCAR-5, 24 h
[5] = Cytotoxicity against human UACC257 cells assessed as cell growth at 10^-5 M after 24 hrs by SRB assay; format: functional; conditions: UACC-257, 24 h, read-out: Activity
NCI-H460 [6] = assay: Cytotoxicity against human NCI-H460 cells assessed as cell growth at 10^-6 M after 24 hrs by SRB assay; format: functional; conditions: NCI-H460, 24 h, read-out: Activity
[7] = Cytotoxicity against human HCT15 cells assessed as cell growth at 10^-7 M after 24 hrs by SRB assay; format: functional; conditions: HCT-15, 24 h, read-out: Activity
A549 [8] = assay: Cytotoxicity against human A549 cells assessed as cell growth at 10^-4 M after 24 hrs by SRB assay; format: functional; conditions: A549, 24 h, read-out: Activity
[9] = Cytotoxicity against human TK10 cells assessed as cell growth at 10^-7 M after 24 hrs by SRB assay; format: functional; conditions: TK-10, 24 h, read-out: Activity
SK-MEL-2 = assay: Cytotoxicity against human SK-MEL-2 cells assessed as cell growth at 10^-6 M after 24 hrs by SRB assay; format: functional; conditions: SK-MEL-2, 24 h, read-out: Activity
NCI-H226 [10] = assay: Cytotoxicity against human NCI-H226 cells assessed as cell growth at 10^-5 M after 24 hrs by SRB assay; format: functional; conditions: NCI-H226, 24 h, read-out: Activity
NCI-H460 [11] = assay: Cytotoxicity against human NCI-H460 cells assessed as cell growth at 10^-5 M after 24 hrs by SRB assay; format: functional; conditions: NCI-H460, 24 h, read-out: Activity
[12] = Cytotoxicity against human OVCAR3 cells assessed as cell growth at 10^-5 M after 24 hrs by SRB assay; format: functional; conditions: OVCAR-3, 24 h, read-out: Activity
CCRF-CEM = assay: Cytotoxicity against human CCRF-CEM cells assessed as cell growth at 10^-4 M after 24 hrs by SRB assay; format: functional; conditions: read-out: Activity
NCI-H226 [13] = assay: Cytotoxicity against human NCI-H226 cells after 24 hrs by SRB assay; format: functional; conditions: NCI-H226, 24 h
[14] = Cytotoxicity against human OVCAR4 cells assessed as cell growth at 10^-7 M after 24 hrs by SRB assay; format: functional; conditions: OVCAR-4, 24 h, read-out: Activity
[15] = Cytotoxicity against human LOXIMVI cells assessed as cell growth at 10^-5 M after 24 hrs by SRB assay; format: functional; conditions: LOX IMVI, read-out: Activity
[16] = Cytotoxicity against human SNB19 cells assessed as cell growth at 10^-7 M after 24 hrs by SRB assay; format: functional; conditions: SNB-19, 24 h, read-out: Activity
[17] = Cytotoxicity against human BT549 cells assessed as cell growth at 10^-8 M after 24 hrs by SRB assay; format: functional; conditions: BT-549, 24 h, read-out: Activity
A549 [18] = assay: Cytotoxicity against human A549 cells assessed as cell growth at 10^-8 M after 24 hrs by SRB assay; format: functional; conditions: A549, 24 h, read-out: Activity
SR = assay: Cytotoxicity against human SR cells assessed as cell growth at 10^-5 M after 24 hrs by SRB assay; format: functional; conditions: read-out: Activity
NCI-H322M [19] = assay: Cytotoxicity against human NCI-H322M cells assessed as cell growth at 10^-4 M after 24 hrs by SRB assay; format: functional; conditions: read-out: Activity
SK-MEL-28 = assay: Cytotoxicity against human SK-MEL-28 cells after 24 hrs by SRB assay; format: functional, cell-based; conditions: SK-MEL-28, 24 h
M14 = assay: Cytotoxicity against human M14 cells after 24 hrs by SRB assay; format: functional, cell-based; conditions: M14, 24 h
[20] = Cytotoxicity against human DU145 cells assessed as cell growth at 10^-5 M after 24 hrs by SRB assay; format: functional; conditions: DU-145, 24 h, read-out: Activity
[21] = Cytotoxicity against human OVCAR4 cells assessed as cell growth at 10^-4 M after 24 hrs by SRB assay; format: functional; conditions: OVCAR-4, 24 h, read-out: Activity
[22] = Cytotoxicity against human SW620 cells assessed as cell growth at 10^-4 M after 24 hrs by SRB assay; format: functional; conditions: SW-620, 24 h, read-out: Activity
[23] = Cytotoxicity against human SF268 cells assessed as cell growth at 10^-6 M after 24 hrs by SRB assay; format: functional; conditions: SF-268, 24 h, read-out: Activity
[24] = Cytotoxicity against human MOLT4 cells after 24 hrs by SRB assay; format: functional; conditions: MOLT-4, 24 h
NCI-H322M [25] = assay: Cytotoxicity against human NCI-H322M cells assessed as cell growth at 10^-7 M after 24 hrs by SRB assay; format: functional; conditions: read-out: Activity
[26] = Cytotoxicity against human DU145 cells assessed as cell growth at 10^-7 M after 24 hrs by SRB assay; format: functional; conditions: DU-145, 24 h, read-out: Activity
SN12C = assay: Cytotoxicity against human SN12C cells assessed as cell growth at 10^-8 M after 24 hrs by SRB assay; format: functional; conditions: read-out: Activity
[27] = Cytotoxicity against human SKOV3 cells assessed as cell growth at 10^-4 M after 24 hrs by SRB assay; format: functional; conditions: SK-OV-3, 24 h, read-out: Activity
[28] = read-out: LC50 (the source's name)
[29] = read-out: pLC50 (the source's name) (converted)

O=C(Nc1cc(-c2cccnc2)nc(NCCCN2CCOCC2)n1)c1cc(Br)cc(C(F)(F)F)c1
growth at 10 µM (NCI-H522): -32%
growth at 10 µM [1]: 29%
GI50 ([2]; read-out: GI50): 2.53 µM
CC50 [2, 28]: 32.8 µM
TGI ([2]; read-out: TGI): 10.7 µM
GI50 ([2]; read-out: pGI50 (converted)): 2.51 µM
CC50 [2, 29]: 33.1 µM
TGI ([2]; read-out: pTGI (converted)): 10.7 µM
GI50 ([3]; read-out: GI50): 2.6 µM
CC50 [3, 28]: 42.9 µM
TGI ([3]; read-out: TGI): 9.11 µM
GI50 ([3]; read-out: pGI50 (converted)): 2.57 µM
CC50 [3, 29]: 42.7 µM
TGI ([3]; read-out: pTGI (converted)): 9.12 µM
GI50 ([4]; read-out: GI50): 6.33 µM
CC50 [4, 28]: 69.1 µM
TGI ([4]; read-out: TGI): 23.5 µM
GI50 ([4]; read-out: pGI50 (converted)): 6.31 µM
CC50 [4, 29]: 69.2 µM
TGI ([4]; read-out: pTGI (converted)): 23.4 µM
growth at 10 µM [5]: -83%
growth at 1 µM (NCI-H460 [6]): 99%
growth at 0.1 µM [7]: 92%
growth at 100 µM (A549 [8]): -95%
growth at 0.1 µM [9]: 91%
growth at 1 µM (SK-MEL-2): 94%
growth at 10 µM (NCI-H226 [10]): 49%
growth at 10 µM (NCI-H460 [11]): -5%
growth at 10 µM [12]: 12%
growth at 100 µM (CCRF-CEM): -52%
GI50 (NCI-H226 [13]; read-out: GI50): 9.3 µM
CC50 (NCI-H226 [13]; [28]): 52.3 µM
TGI (NCI-H226 [13]; read-out: TGI): 22.7 µM
GI50 (NCI-H226 [13]; read-out: pGI50 (converted)): 9.33 µM
CC50 (NCI-H226 [13]; [29]): 52.5 µM
TGI (NCI-H226 [13]; read-out: pTGI (converted)): 22.9 µM
growth at 0.1 µM [14]: 90%
growth at 10 µM [15]: -93%
growth at 0.1 µM [16]: 98%
growth at 0.01 µM [17]: 95%
growth at 0.01 µM (A549 [18]): 110%
growth at 10 µM (SR): 1%
growth at 100 µM (NCI-H322M [19]): -90%
IC50 (SK-MEL-28): 1.73 µM
GI50 (SK-MEL-28; read-out: GI50): 1.73 µM
CC50 (SK-MEL-28; [28]): 7.02 µM
TGI (SK-MEL-28; read-out: TGI): 3.48 µM
GI50 (SK-MEL-28; read-out: pGI50 (converted)): 1.74 µM
CC50 (SK-MEL-28; [29]): 7.08 µM
TGI (SK-MEL-28; read-out: pTGI (converted)): 3.47 µM
GI50 (M14): 1.66 µM
CC50 (M14; [28]): 6.59 µM
TGI (M14; read-out: TGI): 3.32 µM
CC50 (M14; [29]): 6.61 µM
TGI (M14; read-out: pTGI (converted)): 3.31 µM
growth at 10 µM [20]: 39%
growth at 100 µM [21]: -95%
growth at 100 µM [22]: -87%
growth at 1 µM [23]: 85%
GI50 ([24]; read-out: GI50): 3.63 µM
CC50 [24, 28]: 59.6 µM
TGI ([24]; read-out: TGI): 13.1 µM
GI50 ([24]; read-out: pGI50 (converted)): 3.63 µM
CC50 [24, 29]: 60.3 µM
TGI ([24]; read-out: pTGI (converted)): 13.2 µM
growth at 0.1 µM (NCI-H322M [25]): 107%
growth at 0.1 µM [26]: 105%
growth at 0.01 µM (SN12C): 95%
growth at 100 µM [27]: -99%
